Test [1] concerns NIH 3T3 mouse fibroblast cells. Briefly: Mitogen-induced cell proliferation. The class given is cell-based. The note with it: for inhibition at 10 µM: NIH3T3, read-out: Mitogen-induced cell proliferation % Inhibition; for pIC50: NIH3T3, read-out: Mitogen-induced cell proliferation IC50. The text has this: Other cell lines, e.g., cancer cells, endothelial cells and fibroblasts, as well as many others, may be used in the cell proliferation assay. Selection of a particular cell line will depend in part on the desired application, and is well within the capabilities of an ordinarily skilled artisan.

In test [2] the target is Gardos channel of erythrocytes (Homo sapiens, UniProt O15554). Briefly: cell-based. Conditions: for inhibition at 10 µM: read-out: Gardos Channel % Inhibition.
Gardos channel of erythrocytes, sequence (O15554 whole entry): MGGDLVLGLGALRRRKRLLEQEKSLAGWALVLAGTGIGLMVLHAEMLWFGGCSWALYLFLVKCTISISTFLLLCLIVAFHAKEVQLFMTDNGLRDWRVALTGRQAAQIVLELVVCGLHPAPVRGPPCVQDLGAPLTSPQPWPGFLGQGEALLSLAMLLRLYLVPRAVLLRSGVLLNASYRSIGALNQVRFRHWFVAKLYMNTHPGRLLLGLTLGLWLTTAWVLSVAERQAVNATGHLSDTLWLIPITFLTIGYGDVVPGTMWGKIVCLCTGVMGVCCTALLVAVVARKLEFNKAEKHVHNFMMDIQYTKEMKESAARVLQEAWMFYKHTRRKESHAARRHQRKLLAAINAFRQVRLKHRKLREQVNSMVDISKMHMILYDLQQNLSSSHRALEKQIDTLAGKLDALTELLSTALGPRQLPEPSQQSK
[3] abbreviates: erythrocytes, read-out: Gardos Channel IC50.

pIC50: −log10 of the molar value. Read-outs that look alike come from different tables or passages of the source.

Consider `NCCC(c1ccc(Cl)cc1)(c1ccc(Cl)cc1)c1ccc(Cl)cc1` [Compound 41], for which the inhibition at 10 µM was 99% in test [1] and 97% in test [2]. Moreover, the pIC50 in test [1] was 5.85; in test [2] (setting [3]) it was 5.68.

`C1=CC(=P(c2ccccc2)(c2ccccc2)c2ccccc2)C=C1` [Compound 10]: the inhibition at 10 µM in test [1] worked out at 25.5%; in test [2], 89.7%. The figures for the pIC50 in test [1] and in test [2] (setting [3]) were 5.32 and 6.02, respectively.

For `COC(c1ccccc1)(c1ccccc1)c1ccccc1` [Compound 51], the inhibition at 10 µM was found to be 37% in test [1] and 100% in test [2]. Also, the pIC50 in test [2] (setting [3]) was 6.26.

Regarding `N#CC(c1ccccc1)(c1ccccc1)c1ccc([N+](=O)[O-])cc1` [Compound 52], the figures for the inhibition at 10 µM in test [1] and in test [2] were 93% and 94%, respectively. Moreover, the pIC50 is 5.77 in test [1] and 6.59 in test [2] (setting [3]).

Consider `OC(C#Cc1ccccc1)(c1ccccc1)c1ccccc1` [Compound 48], for which, in test [1], the inhibition at 10 µM was determined as 98% and the pIC50 was 6.40. In addition, in test [2], the pIC50 is 5.89 and the inhibition at 10 µM stood at 100%.

Consider `CCOC(c1ccccc1)(c1ccccc1)c1ccccc1` [Compound 46], for which the inhibition at 10 µM came out at 99% in test [1] and 99.5% in test [2]. Also, the figures for the pIC50 in test [1] and in test [2] (setting [3]) were 5.66 and 7.12, respectively.

Consider `COC(=O)CC(c1ccccc1)(c1ccccc1)c1ccccc1` [Compound 53], for which the inhibition at 10 µM in test [1] was determined as 74%; in test [2], 98%. In addition, the pIC50 in test [2] (setting [3]) is 7.00.

For `OC(c1ccccc1)(c1ccccc1)c1ccc(-c2ccccc2)cc1` [Compound 21], in test [1], the inhibition at 10 µM came to 99% and the pIC50 is 5.55. In test [2], the pIC50 is 6.14 and the inhibition at 10 µM amounted to 97.3%.

Take `CCOC(=O)C(C(=O)OCC)C(c1ccccc1)(c1ccccc1)c1ccccc1Cl` [Compound 33]: the inhibition at 10 µM in test [1] amounted to 45%; in test [2], 100%. The pIC50 in test [2] was 6.90.

On to `OC(c1ccccc1)(c1ccccc1)c1ccc(C(F)(F)F)cc1` [Compound 68], for which, in test [1], the inhibition at 10 µM is 98% and the pIC50 is 5.51. Besides, in test [2], the pIC50 was 6.63 and the inhibition at 10 µM stood at 97.5%.

Turning to `SC(c1ccccc1)(c1ccccc1)c1ccccc1` [Compound 11], the values for the inhibition at 10 µM in test [1] and in test [2] were 52% and 99.2%, respectively. For the same molecule, the results for the pIC50 in test [1] and in test [2] (setting [3]) were 5.64 and 5.67, respectively.

Consider `NC(=O)CCC(c1ccccc1)(c1ccccc1)c1ccccc1` [Compound 78], for which the inhibition at 10 µM in test [1] was determined as 72%; in test [2] it was 95%. Further, the pIC50 in test [2] (setting [3]) is 6.66.

For the molecule `O=CCC(c1ccccc1)(c1ccccc1)c1ccccc1` [Compound 38], the inhibition at 10 µM in test [1] came out at 99%; in test [2], 92%. Also, the values for the pIC50 in test [1] and in test [2] (setting [3]) were 5.64 to 6.10 and 6.66, respectively.

In the case of `BrC(c1ccccc1)(c1ccccc1)c1ccccc1` [Compound 12], in test [1], the inhibition at 10 µM stood at 72.8% and the pIC50 was 5.77. Moreover, in test [2], the pIC50 was 6.60 and the inhibition at 10 µM was 99%.

Regarding `OCC(c1ccccc1)(c1ccccc1)c1ccccc1` [Compound 35], the inhibition at 10 µM in test [1] stood at 38%; in test [2], 95.8%. In addition, the pIC50 in test [2] is 6.37.

Take `c1ccc(N(c2ccccc2)c2ccccc2)cc1` [Compound 8]: the inhibition at 10 µM in test [1] came to 28.3%; in test [2] it was 95.6%. Besides, the pIC50 in test [2] (setting [3]) was 5.55.

Consider `c1ccc(C(c2ccccc2)(c2ccccc2)[n+]2ccccc2)cc1` [Compound 7], for which the inhibition at 10 µM in test [1] amounted to 6.6%; in test [2] it was 98.2%. The pIC50 in test [2] (setting [3]) was 6.39.

With `NCCC(c1ccccc1)(c1ccccc1)c1ccccc1` [Compound 29], the inhibition at 10 µM came to 99% in test [1] and 100% in test [2]. The pIC50 in test [1] was 5.51; in test [2] (setting [3]) it was 6.19.

Take `N#CCC(c1ccccc1)(c1ccccc1)c1ccccc1` [Compound 19]: the inhibition at 10 µM in test [1] stood at 80%; in test [2], 97%. Also, the pIC50 in test [1] was 5.24; in test [2] (setting [3]), 5.95.

Turning to `CCOC(=O)CNC(c1ccccc1)(c1ccccc1)c1ccccc1` [Compound 57], the figures for the inhibition at 10 µM in test [1] and in test [2] were 21% and 89%, respectively. In test [2] (setting [3]), the pIC50 was 5.82.

On to `N#CC(c1ccccc1)(c1ccccc1)c1ccc([N+](=O)[O-])cc1Cl` [Compound 49], for which the inhibition at 10 µM in test [1] worked out at 94%; in test [2], 88%. For the same molecule, the pIC50 in test [1] was 6.52; in test [2] (setting [3]), 6.47.

`c1ccc(C(c2ccccc2)c2ccccc2)cc1` [Compound 3]: the inhibition at 10 µM in test [1] was 53%. In test [2], the pIC50 is 5.92 and the inhibition at 10 µM was found to be 86.6%.

For `Fc1ccccc1C(c1ccccc1)c1ccccc1` [Compound 27], the inhibition at 10 µM in test [1] was 99%; in test [2], 100%. Moreover, the pIC50 was 5.52 in test [1] and 6.35 in test [2] (setting [3]).

For the molecule `Oc1ccccc1C(O)(c1ccccc1)c1ccccc1` [Compound 42], the inhibition at 10 µM in test [1] and in test [2] was 99% in each case. Moreover, the values for the pIC50 in test [1] and in test [2] were 5.48 and 6.21, respectively.

As for `Cc1ccc(C(O)(c2ccc(C)cc2)c2ccc(C)cc2)cc1` [Compound 59], in test [1], the inhibition at 10 µM is 98% and the pIC50 is 5.52. Further, in test [2], the pIC50 was 6.31 and the inhibition at 10 µM stood at 100%.

`O=C(O)CNC(c1ccccc1)(c1ccccc1)c1ccccc1` [Compound 25]: the figures for the inhibition at 10 µM in test [1] and in test [2] were 70% and 34.4%, respectively.

In the case of `NOC(c1ccccc1)(c1ccccc1)c1ccccc1` [Compound 34], the inhibition at 10 µM was 68% in test [1] and 96.3% in test [2]. Further, the pIC50 in test [2] (setting [3]) was 6.03.

As to `OC(c1ccccc1)(c1ccccc1)c1ccc(Cl)cc1` [Compound 43], the inhibition at 10 µM in test [1] and in test [2] was 99% each time. For the same molecule, the pIC50 in test [1] is 6.10; in test [2] it was 7.21.

Regarding `OC(c1ccccc1)(c1ccccc1)c1cccc2ccccc12` [Compound 61], in test [1], the inhibition at 10 µM is 99% and the pIC50 is 5.80. For the same molecule, in test [2], the pIC50 is 5.62 and the inhibition at 10 µM came to 85%.

Turning to `O=C(CBr)C(c1ccccc1)(c1ccccc1)c1ccccc1` [Compound 69], the inhibition at 10 µM in test [1] came out at 99%; in test [2], 100%. The pIC50 in test [2] (setting [3]) is 7.60.

For `COc1ccc(C(O)(c2ccccc2)c2ccccc2Cl)cc1` (stereo not drawn) [Compound 81], the figures for the inhibition at 10 µM in test [1] and in test [2] were 53% and 100%, respectively. The pIC50 in test [2] (setting [3]) was 6.73.

As to `CCOC(=O)C(c1ccccc1)(c1ccccc1)c1ccccc1` [Compound 47], the values for the inhibition at 10 µM in test [1] and in test [2] were 99% and 100%, respectively. Further, the pIC50 in test [1] is 6.10; in test [2] (setting [3]) it was 6.71.

The record behind these values is patent publication US7531573B2 (priority 1994, dated 2009).
